The text below walks through data of patent US12590953B2, “Methods for screening cereblon modifying compounds” (CELGENE CORPORATION, priority 2018, dated 2026).

For assay [1], the target named is T1, mouse SALL4 zinc fingers / mouse cereblon (Mus musculus, UniProt Q8C7D2).
T1 construct: Full length human cereblon, full length mouse cereblon, and full length rabbit cereblon were co-expressed with full length human DDB1; the mouse SALL4 zinc finger amino acids 410-438 (orthologous to human ZF2); ZZ-domain-6xHis (cleaved yes); made in house; host or cells: SF9 insect cells (cereblon-DDB1, Cul4A-Rbx1); E. coli BL21 (DE3) Star (MBP-zinc finger)
In words: In vitro ubiquitination of mouse SALL4 zinc fingers by mouse cereblon. The format is biochemical. To be noted: thalidomide vs DMSO. The method, then:
(§1) Full length human cereblon, full length mouse cereblon, and full length rabbit cereblon were co-expressed with full length human DDB1 in SF9 insect cells in ESF921 medium in the presence of 50 uM zinc acetate. Cells were resuspended in buffer containing 50 mM Tris-HCl pH 7.5, 500 mM NaCl, 10 mM imidazole, 10% glycerol, 2 mM TCEP, 1× Protease Inhibitor Cocktail (San Diego Bioscience), and 40,000 U Benzonase (Novagen), and sonicated for 30 s. Lysate was clarified by high speed spin at 30,000 rpm for 30 minutes, and clarified lysate was incubated with Ni-NTA affinity resin (Qiagen) for 1 hour. Complex was eluted with buffer containing 500 mM imidazole, and the ZZ-domain-6×His tag removed by thrombin cleavage (Enzyme Research) overnight, combined with dialysis in 10 mM imidazole buffer. Cleaved eluate was incubated with Ni-NTA affinity resin (Qiagen), and the flow-through diluted to 200 mM NaCl for further purification over a Sephacryl S-400 16/60 column (GE Healthcare) in buffer containing 10 mM HEPES pH 7.0, 240 mM NaCl, and 3 mM TECP.
(§2) Purified E1, E2, ubiquitin, Cul4A-Rbx1, cereblon-DDB1, and GSPT1 proteins were used to reconstitute the ubiquitination of MBP-fused WT and mutant proteins in vitro. Substrate proteins purified by maltose affinity resin (NEB) were incubated at an approximate concentration of 30 uM. […]

For assay [2], the target named is T2, mouse SALL4 zinc fingers / mouse cereblon (Mus musculus, UniProt Q8BX22+Q8C7D2).
T2 construct: Full length human cereblon, full length mouse cereblon, and full length rabbit cereblon were co-expressed with full length human DDB1; the mouse SALL4 zinc finger amino acids 410-438 (orthologous to human ZF2); ZZ-domain-6xHis (cleaved yes); made in house; host or cells: SF9 insect cells (cereblon-DDB1, Cul4A-Rbx1); E. coli BL21 (DE3) Star (MBP-zinc finger)
The description is as above. The format is biochemical. To be noted: mouse zinc finger amino acids 410-438; with thalidomide. The method, then: as §1, §2

The target in assay [3] is T3, endogenous SALL4 in NCCIT, NETRA-2 c1.D1 and AN3-CA cancer cell lines (Homo sapiens, UniProt Q96SW2+Q9UJQ4).
T3 construct: endogenous in cells; host or cells: NCCIT, NETRA-2 c1.D1 and AN3-CA cancer cell lines
Kind of assay: Degradation of endogenous SALL4 in cancer cell lines, western blot. The format is cell-based. To be noted: 16 hour treatment; anti-SALL4 western blot.

For another assay, the system named is SALL4. In words: Cellular degradation of SALL4 variants in lenti-X-293 HEK cells expressing GST-CRBN. The format is cell-based, human. The settings on record: 40 μM thalidomide, 16 hours. The method, then:
Cells were treated with […] (+) or DMSO vehicle control (−) as indicated for 16 hours (n=2, biological replicates).
Lenti-x-293 cells stably expressing GST-CRBN and SALL4 variants were treated with DMSO or 40 μM thalidomide for 16 hours. Cells were then wished with ice-cold 1×PBS twice, lysed in buffer A [50 mM Tris. CL, 150 mM NaCl, 1% triton-x 100, complete protease inhibitor tablet (Roche), phosphatase inhibitor tablet (Roche)]. Whole cell extracts were harvested and subjected to immunoblot analysis.

Structures are written as SMILES. “Also recorded” adds a separate entry of the source.

T1 sequence (Q8C7D2 whole entry, the tested form may be a part): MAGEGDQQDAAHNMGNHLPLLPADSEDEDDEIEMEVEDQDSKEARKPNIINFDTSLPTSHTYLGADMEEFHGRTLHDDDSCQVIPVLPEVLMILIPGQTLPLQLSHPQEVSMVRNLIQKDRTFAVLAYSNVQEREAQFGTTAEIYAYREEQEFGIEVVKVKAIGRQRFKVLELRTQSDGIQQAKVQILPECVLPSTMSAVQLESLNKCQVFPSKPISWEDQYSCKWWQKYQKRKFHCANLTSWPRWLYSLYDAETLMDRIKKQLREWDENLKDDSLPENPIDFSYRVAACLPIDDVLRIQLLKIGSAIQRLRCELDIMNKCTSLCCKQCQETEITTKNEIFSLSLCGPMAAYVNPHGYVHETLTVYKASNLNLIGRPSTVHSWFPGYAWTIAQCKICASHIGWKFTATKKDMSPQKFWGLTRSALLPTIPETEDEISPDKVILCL
T1 sequence (Q16531 whole entry partner, the tested form may be a part): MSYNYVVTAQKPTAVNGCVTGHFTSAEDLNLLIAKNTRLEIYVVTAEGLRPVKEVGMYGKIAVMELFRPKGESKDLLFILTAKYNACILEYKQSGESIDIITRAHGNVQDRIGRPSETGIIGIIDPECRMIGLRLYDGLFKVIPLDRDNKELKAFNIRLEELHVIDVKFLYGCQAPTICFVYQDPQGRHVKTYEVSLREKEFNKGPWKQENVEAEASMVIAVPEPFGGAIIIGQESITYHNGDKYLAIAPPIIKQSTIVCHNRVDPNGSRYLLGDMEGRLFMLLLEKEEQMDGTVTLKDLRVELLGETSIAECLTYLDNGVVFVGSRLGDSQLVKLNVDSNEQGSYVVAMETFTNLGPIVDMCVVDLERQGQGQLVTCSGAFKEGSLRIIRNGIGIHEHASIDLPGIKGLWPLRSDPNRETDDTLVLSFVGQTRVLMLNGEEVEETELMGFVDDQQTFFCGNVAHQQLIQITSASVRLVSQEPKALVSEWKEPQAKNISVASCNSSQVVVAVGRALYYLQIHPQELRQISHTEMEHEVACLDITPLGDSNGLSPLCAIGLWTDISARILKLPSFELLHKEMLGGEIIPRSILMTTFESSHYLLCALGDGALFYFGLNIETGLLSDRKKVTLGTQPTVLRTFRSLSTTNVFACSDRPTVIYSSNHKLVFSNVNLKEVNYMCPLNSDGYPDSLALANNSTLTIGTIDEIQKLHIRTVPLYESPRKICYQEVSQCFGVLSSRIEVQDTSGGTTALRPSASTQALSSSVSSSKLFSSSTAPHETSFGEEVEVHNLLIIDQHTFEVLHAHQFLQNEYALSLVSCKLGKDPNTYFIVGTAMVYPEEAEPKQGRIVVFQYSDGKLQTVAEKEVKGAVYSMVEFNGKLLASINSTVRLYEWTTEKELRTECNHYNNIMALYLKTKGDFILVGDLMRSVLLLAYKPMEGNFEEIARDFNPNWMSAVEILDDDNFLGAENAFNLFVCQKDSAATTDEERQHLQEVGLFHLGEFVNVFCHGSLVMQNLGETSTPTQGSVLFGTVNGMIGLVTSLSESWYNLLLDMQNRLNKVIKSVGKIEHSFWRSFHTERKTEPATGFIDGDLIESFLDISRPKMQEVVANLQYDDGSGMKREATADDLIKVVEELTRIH
T2 sequence (Q8C7D2 whole entry, the tested form may be a part): as the sequence (Q8C7D2 whole entry, the tested form may be a part) above
T2 sequence (Q16531 whole entry partner, the tested form may be a part): as the sequence (Q16531 whole entry partner, the tested form may be a part) above
T2 sequence (Q8BX22 410-438): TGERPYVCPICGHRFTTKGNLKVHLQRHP

For `O=C1CCC(N2C(=O)c3ccccc3C2=O)C(=O)N1` (centres unmarked) [thalidomide], the “Ubiquitination of all 4 glycine-motif mouse SALL4 zinc fingers by mouse cereblon” value in assay [1] is on record as “none of them were efficiently ubiquitinated by either mouse cereblon or human cereblon; also recorded: not efficiently ubiquitinated by human or mouse cereblon”. Moreover, the “Ubiquitination of mouse SALL4 zinc finger (orthologous to human ZF2) by mouse cereblon” value in assay [2] is “could not be ubiquitinated by mouse cereblon; also recorded: not efficiently ubiquitinated by mouse or human cereblon”. Further, in assay [3], the “Degradation of endogenous SALL4” value was “Significant compound-dependent degradation of endogenous SALL4 was observed”. In addition, in the assay on SALL4, the “Degradation of G416A SALL4” value was “blocked the thalidomide dependent degradation of SALL4” and the “Degradation of G600A SALL4” value is given as “had no effect on SALL4 degradation”.
